Source: ChEMBL document CHEMBL1201862, “PubChem BioAssay data set” (2004)
Calls of active or inactive are those of the source.

Assays:
[1] = target: T1, Alkaline phosphatase, tissue-nonspecific isozyme (Homo sapiens, UniProt P05186)
T1 sequence (P05186 whole entry): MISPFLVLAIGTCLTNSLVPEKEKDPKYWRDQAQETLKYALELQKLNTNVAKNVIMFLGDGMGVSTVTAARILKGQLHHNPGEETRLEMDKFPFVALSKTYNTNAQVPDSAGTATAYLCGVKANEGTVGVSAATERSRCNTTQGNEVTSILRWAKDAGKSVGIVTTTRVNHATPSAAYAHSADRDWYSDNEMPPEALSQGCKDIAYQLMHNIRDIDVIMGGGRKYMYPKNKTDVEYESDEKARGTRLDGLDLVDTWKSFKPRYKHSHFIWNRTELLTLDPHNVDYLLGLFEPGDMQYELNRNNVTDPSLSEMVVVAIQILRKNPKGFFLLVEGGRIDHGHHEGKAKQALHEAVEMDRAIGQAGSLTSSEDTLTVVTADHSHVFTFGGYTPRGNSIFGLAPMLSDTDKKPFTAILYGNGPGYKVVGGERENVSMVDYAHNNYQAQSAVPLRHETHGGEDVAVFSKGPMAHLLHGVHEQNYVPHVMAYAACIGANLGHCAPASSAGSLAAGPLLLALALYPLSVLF

[2] = growth suppression of PTEN-null colon cells, dose response, cell-based, HCT116 PTEN knockout (AID 1047); type: functional;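 further: HCT116 colon tumor cells with PTEN knocked out; cells exposed to compound for 60 hours before readout; potency for loss of cell viability measured by luminescence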
[3] = growth suppression of beta-catenin-knockout colon cells, dose response, cell-based, HCT116, human colon tumor (AID 1045); type: functional;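 further: HCT116 colon tumor cells with beta catenin knocked out; cells exposed to compound for 60 hours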
HEK293 [4] = assay: PMA/Ionomycin induced NF-kB luciferase assay in 293- NF-kB-Luc stable cells. [Related pubchem assays: 1299, 1270, 1295, 1375, 1287, 1281, 1293, 1291, 1289, 1280, 465, 1364, 1282, 1372, 1365, 1370, 1367, 1366, 1269, 1373, 1292, 1290, 1302, 1371, 1283, 1271, 1294, 1374, 1368, 1369 ]; type: functional, cell-based; settings: Homo sapiens
[5] = target: T2, Luciferin 4-monooxygenase (Photinus pyralis, UniProt P08659); assay: In vitro luciferase assay using purified luciferase. [Related pubchem assays: 1299, 1270, 1295, 1375, 1287, 1281, 1293, 1291, 1289, 1280, 465, 1364, 1282, 1372, 1365, 1370, 1367, 1366, 1266, 1373, 1292, 1290, 1302, 1371, 1283, 1271, 1294, 1374, 1368, 1369 ]
T2 sequence (P08659 whole entry): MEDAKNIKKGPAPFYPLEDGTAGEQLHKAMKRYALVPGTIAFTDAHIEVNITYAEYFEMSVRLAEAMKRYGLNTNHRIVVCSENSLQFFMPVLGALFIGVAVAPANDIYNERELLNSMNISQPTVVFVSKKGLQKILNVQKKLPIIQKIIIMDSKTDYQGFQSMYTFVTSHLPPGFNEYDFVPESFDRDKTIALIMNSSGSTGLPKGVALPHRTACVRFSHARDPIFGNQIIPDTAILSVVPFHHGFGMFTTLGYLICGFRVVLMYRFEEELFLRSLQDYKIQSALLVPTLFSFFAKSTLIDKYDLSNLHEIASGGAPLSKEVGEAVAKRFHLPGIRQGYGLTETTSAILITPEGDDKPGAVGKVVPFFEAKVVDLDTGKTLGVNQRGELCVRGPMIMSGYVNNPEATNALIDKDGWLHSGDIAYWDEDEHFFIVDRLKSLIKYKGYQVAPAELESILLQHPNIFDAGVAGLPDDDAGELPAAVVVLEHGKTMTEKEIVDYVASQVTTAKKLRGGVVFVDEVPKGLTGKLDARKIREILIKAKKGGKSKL

HEK293 [6] = assay: PMA/Ionomycin-induced IL-8 production in HEK293- NF-kB-Luc stable cells. [Related pubchem assays: 1299, 1295, 1375, 1287, 1281, 1293, 1291, 1289, 1280, 465, 1364, 1282, 1372, 1365, 1367, 1366, 1266, 1269, 1373, 1292, 1290, 1302, 1371, 1283, 1271, 1294, 1374, 1368, 1369 ]; type: functional, cell-based; settings: Homo sapiens
HEK293 [7] = assay: Cytotoxicity assay in HEK293 cells. [Related pubchem assays (depositor defined):AID1266, AID1269, AID1270, AID1271, AID1280, AID1281, AID1282, AID1283, AID1287, AID1289, AID1290, AID1291, AID1292, AID1293, AID1294, AID1295, AID1299, AID1302, AID1364, AID1365, AID1366, AID1367, AID1369, AID1370, AID1371, AID1372, AID1373, AID1374, AID1375, AID1384 …; type: functional, cell-based; settings: Homo sapiens
HEK293 [8] = assay: TNF Induced NF-kB Luciferase in 293-NF-kB-Luc Stable Cells. [Related pubchem assays: 1266, 1299, 1269, 1373, 1292, 1290, 1302, 1371, 1283, 1270, 1295, 1271, 1375, 1294, 1374, 1281, 1293, 1291, 1289, 1280, 465, 1368, 1364, 1282, 1372, 1365, 1369, 1370, 1367, 1366 ]; type: functional, cell-based; settings: Homo sapiens
[9] = target: Lysosomal acid glucosylceramidase (Homo sapiens, UniProt P04062); assay: Dose response cell-based high throughput screening assay to identify enhancers of beta-glucosidase activity. [Related pubchem assays: 784 ]; type: functional
Sequence of Lysosomal acid glucosylceramidase (P04062 whole entry): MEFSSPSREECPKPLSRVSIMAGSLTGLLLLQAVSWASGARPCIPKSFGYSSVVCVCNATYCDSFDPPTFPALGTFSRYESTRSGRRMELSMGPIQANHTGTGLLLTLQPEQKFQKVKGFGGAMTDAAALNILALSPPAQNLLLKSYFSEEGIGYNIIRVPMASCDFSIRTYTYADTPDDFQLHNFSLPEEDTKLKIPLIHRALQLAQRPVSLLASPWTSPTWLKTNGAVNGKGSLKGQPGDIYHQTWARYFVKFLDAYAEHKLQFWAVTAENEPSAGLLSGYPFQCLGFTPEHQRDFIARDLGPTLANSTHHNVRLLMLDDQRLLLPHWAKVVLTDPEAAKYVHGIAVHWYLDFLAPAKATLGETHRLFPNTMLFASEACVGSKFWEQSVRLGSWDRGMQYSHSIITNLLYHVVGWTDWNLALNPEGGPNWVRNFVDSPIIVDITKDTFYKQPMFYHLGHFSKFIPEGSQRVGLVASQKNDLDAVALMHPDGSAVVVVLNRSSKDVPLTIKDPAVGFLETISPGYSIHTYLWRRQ

[10] = inhibitors of firefly luciferase expression or activity, dose response, H4 neuroglioma cells, luminescence (AID 1990); type: functional, cell-based
[11] = target: T2, Luciferin 4-monooxygenase; assay: Counter Screen for Luciferase-based Assay Positives. [Related pubchem assays: 620, 618, 411 ]
cells = type: functional, cell-based
[12] = Luminescence Cell-Based Dose Response HTS to Identify Inhibitors of 5'UTR Stem-Loop Driven Prion Protein mRNA Translation in H4 Neuroglioblastoma Cells. [Related pubchem assays: 1827 (Project Summary), 1813 (Primary HTS)]; type: functional
[13] = target: T3, Heat shock factor protein 1 (Mus musculus, UniProt P38532); assay: inhibition of MG132-induced HSE-luciferase signal, confirmation, cell-based, NIH3T3, luminescence, dose retest (AID 2382); type: functional;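 further: NIH3T3 fibroblasts with HSF1-driven luciferase reporter stressed by proteasome inhibitor MG132; luminescence from HSF1-driven luciferase expression after 8 hours of MG132 stress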
T3 sequence (P38532 whole entry): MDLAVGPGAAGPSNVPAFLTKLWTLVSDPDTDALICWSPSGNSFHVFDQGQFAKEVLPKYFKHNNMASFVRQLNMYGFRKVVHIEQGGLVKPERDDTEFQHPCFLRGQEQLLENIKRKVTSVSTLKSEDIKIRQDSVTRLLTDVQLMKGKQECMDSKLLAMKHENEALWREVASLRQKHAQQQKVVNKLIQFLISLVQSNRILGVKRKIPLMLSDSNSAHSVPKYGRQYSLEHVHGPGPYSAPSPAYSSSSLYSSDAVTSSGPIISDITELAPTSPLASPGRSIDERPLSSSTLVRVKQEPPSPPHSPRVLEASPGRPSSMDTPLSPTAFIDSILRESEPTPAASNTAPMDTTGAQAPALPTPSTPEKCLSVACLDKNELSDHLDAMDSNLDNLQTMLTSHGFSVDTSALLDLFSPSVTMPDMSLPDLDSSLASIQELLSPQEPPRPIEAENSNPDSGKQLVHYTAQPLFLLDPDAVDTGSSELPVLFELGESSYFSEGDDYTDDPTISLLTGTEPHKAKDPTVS

[14] = inhibitors of SNCA 5'UTR-driven reporter translation, confirmation, H4 neuroglioma cells, luminescence (AID 1988); type: functional, cell-based
[15] = target: T2, Luciferin 4-monooxygenase; assay: firefly luciferase enzyme inhibitors, dose response, biochemical, luminescence (AID 1891)
[16] = Luminescence Cell-Based Dose Confirmation HTS to Identify Inhibitors of Platelet Dense Granule Release. [Related pubchem assays: 1663 (Primary HTS), 1678 (Summary of Project)]; type: functional
HT-1080 = assay: cytotoxicity in HT1080 fibrosarcoma cells, cell-based, fluorescence readout (AID 620); type: functional; settings: Homo sapiens
[17] = inhibitors of SNCA 5'UTR-driven translation, confirmation, luminescence, H4 neuroglioblastoma cells, dose confirmation (AID 2454); type: functional, cell-based;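 further: H4 neuroglioblastoma cells carrying an alpha-synuclein 5'UTR luciferase reporter; potency for inhibition of the luciferase signal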
[18] = target: T4, Microphthalmia-associated transcription factor (Homo sapiens, UniProt O75030); assay: TRPM1 promoter luciferase signal decrease, dose response, MITF inhibitor project, cell-based, SK-MEL-5, cherry-picked, set 3 (AID 493073); type: functional
T4 sequence (O75030 whole entry): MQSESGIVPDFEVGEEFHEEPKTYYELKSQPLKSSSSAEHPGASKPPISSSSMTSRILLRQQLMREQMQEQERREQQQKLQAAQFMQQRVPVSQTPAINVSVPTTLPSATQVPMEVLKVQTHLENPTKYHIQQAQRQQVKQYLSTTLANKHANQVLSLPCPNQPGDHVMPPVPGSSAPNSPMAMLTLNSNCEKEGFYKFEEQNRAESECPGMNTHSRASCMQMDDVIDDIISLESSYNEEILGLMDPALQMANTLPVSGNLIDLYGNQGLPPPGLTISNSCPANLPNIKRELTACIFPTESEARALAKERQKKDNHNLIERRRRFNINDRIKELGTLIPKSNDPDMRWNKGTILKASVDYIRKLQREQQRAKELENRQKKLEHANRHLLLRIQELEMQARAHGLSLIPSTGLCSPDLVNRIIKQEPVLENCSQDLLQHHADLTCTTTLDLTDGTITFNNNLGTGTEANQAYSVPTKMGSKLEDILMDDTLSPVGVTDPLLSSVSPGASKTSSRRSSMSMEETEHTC

A-375 = assay: A375 melanoma cell viability reduction, dose response, counter-screen for MITF modulator project, cherry-pick samples, set 2 (AID 540335); type: functional, cell-based; settings: Homo sapiens
[19] = test system: Streptococcus sp. 'group A'; assay: growth inhibition of control SK(-) GAS strain, dose response, counter-screen for streptokinase expression inhibitor project, luminescence, kanamycin, BacTiterGlo, confirmation (AID 1900); type: functional, organism-based
HEK293 [20] = assay: Fluorescence-based counterscreen for potentiators or agonists of NPY-Y1: cell-based high-throughput dose response assay for inhibitors of cyclic nucleotide gated ion channel (CNGC) activity. In this assay, the parental HEK293 cell line transfected with a cyclic-nucleotide gated ion channel (CNGC)-based cAMP sensor is used to measure inhibition of isoproterenol-induced CNGC …; type: functional; settings: Homo sapiens
Streptococcus = assay: Group A Streptococcus viability loss, dose response, counter-screen for streptokinase expression inhibitor project, luminescence, BacTiterGlo (AID 1915); type: functional, organism-based;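 further: potency for reduction of bacterial viability or growth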

SMILES: Cn1c(N/N=C2\CCCc3ccccc32)nc2c1c(=O)n(Cc1ccc(F)cc1)c(=O)n2C
- EC50 [1]: 18.8 µM (active)
- EC50 [2]: 9.86 µM (active)
- EC50 [3]: 10.2 µM (active)

SMILES: CN(C)c1ncnc2c1ncn2[C@@H]1OC(CO)C(O)C1O (some centres undefined)
- EC50 (HEK293 [4]): 1.85 µM (active)
- EC50 [5]: > 8 µM (not active)
- EC50 (HEK293 [6]): > 8 µM (not active)
- EC50 (HEK293 [7]): 12.2 µM (inactive)
- EC50 (HEK293 [8]): > 8 µM (not active)

SMILES: CCOC(=O)c1oc2c(C)c(O)ccc2c(=O)c1-c1nncn1-c1ccccc1
- EC50 [9]: > 50 µM (not active)

SMILES: O=C(/C=C\Nc1ccc2c(c1)OCO2)c1ccccn1
- EC50 [10]: 0.649 µM (active)
- EC50 [11]: 23.4 µM (active)
- EC50 (cells): > 12 µM (inconclusive)
- EC50 [12]: < 0.1 µM (active)
- EC50 [13]: 4.62 µM (active)
- EC50 [14]: 0.234 µM (active)
- EC50 [15]: 0.634 µM (active)
- EC50 [16]: 3.3 µM (active)
- EC50 (HT-1080): > 50 µM (not active)
- EC50 [17]: 0.874 µM (active)
- AC50 [18]: 2.08 µM (active)
- AC50 (A-375): 41 µM (active)

SMILES: CCOc1ccc(NC(S)=NN=C(S)Nc2cccc(C(F)(F)F)c2)cc1
- EC50 [19]: 24.4 µM (active)
- IC50 (HEK293 [20]): > 35.4 µM (not active)
- EC50 (Streptococcus): > 150 µM (not active)
